In patent publication US20230172929A1, “NOVEL PERIPHERAL CANNABINOID-1 RECEPTOR ANTAGONISTS” (Yissum Research Development Company of the Hebrew …, priority 2019, published 2023):
Entries after “also recorded” stand apart in the source; their conditions may differ. Like-named read-outs stand apart in the source and are kept apart here. Values belong to the compound of their own block, whether it stands above or below them.

Tests used:
CB1R [1] = target: T1, CB1R (Mus musculus, UniProt P47746); experiment: Radioligand binding assay, competition displacement of [3H]CP-55,940, CB1R
T1 construct: crude membranes from mouse brain for CB1R; from tissue; host or cells: mouse brain, crude membranes
T1 sequence (P47746 whole entry): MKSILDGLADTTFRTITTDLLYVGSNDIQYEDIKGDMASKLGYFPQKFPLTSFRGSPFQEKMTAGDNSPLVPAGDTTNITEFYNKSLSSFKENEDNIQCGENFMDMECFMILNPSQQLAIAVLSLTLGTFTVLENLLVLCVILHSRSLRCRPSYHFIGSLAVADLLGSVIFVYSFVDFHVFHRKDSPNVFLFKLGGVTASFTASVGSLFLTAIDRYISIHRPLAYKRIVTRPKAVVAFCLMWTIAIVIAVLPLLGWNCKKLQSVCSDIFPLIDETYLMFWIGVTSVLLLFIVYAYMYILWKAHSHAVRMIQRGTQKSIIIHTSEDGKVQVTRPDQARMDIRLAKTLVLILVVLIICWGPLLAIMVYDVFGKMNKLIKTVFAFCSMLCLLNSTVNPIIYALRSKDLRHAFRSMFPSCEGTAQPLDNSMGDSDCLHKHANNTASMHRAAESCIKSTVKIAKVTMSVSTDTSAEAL
Protocol: Radioligand binding assays: Binding to CB1R and CB2R was assessed in competition displacement assays using [3^H]CP-55,940 as the radioligand and crude membranes from mouse brain for CB1R or human cell membrane for CB2R, as reported previously. All data were in triplicates with Ki values determined from three independent experiments.
CB1R binding: The actual affinity of the 14 candidates was tested in a CB1R competitive binding assay.

[2] = Tissue levels of antagonists (brain, serum) by LC-MS/MS; format: in vivo, mice; details: 1 hour after single dose
Protocol: Blood was collected, and the mice were perfused with phosphate buffered saline for 1 min to remove drug from the intravascular space before removing the brain and liver. Drug levels in tissue homogenates and plasma were determined by using LC-MS/MS.

CB1R [3] = target: T1, CB1R; experiment: [35S]GTPγS binding, with and without CB1R agonist HU-210; format: biochemical; details: mouse brain membranes, compounds at 10 μM, with and without HU-210 (100 nM)
Protocol: [^35S]GTPγS binding: Mouse brains (CB1R) or human cell membranes (CB2R) were dissected and P2 membranes prepared and resuspended at ˜2 μg protein/μL in 1 mL assay buffer (50 mM Tris HCl, 9 mM MgCl2, 0.2 mM EGTA, 150 mM NaCl; pH 7.4). Ligand-stimulated [^35S]GTPγS binding was assayed as described previously. Briefly, membranes (10 μg protein) were incubated in assay buffer containing 100 μM GDP, 0.05 nM [^35S]GTPγS, test compounds (HU-210, CP55,940 and tested molecules) at 10 μM, and 1.4 mg/mL fatty acid-free BSA in siliconized glass tubes. Bound ligand was separated from free ligand by vacuum filtration. Non-specific binding was determined using 10 μM GTPS. Basal binding was assayed in the absence of the ligand and in the presence of GDP.
The test was performed for each compound with and without the CB1R agonist HU-210 (100 nM).

mice = experiment: Locomotor activity, CB1R-mediated hyperactivity; format: in vivo; details: 10 mg/kg ip
Description: Locomotor Activity: Locomotor activity was quantified by the number of disruptions of infrared XYZ beam arrays with a beam spacing of 0.25 cm in the Promethion High-Definition Behavioral Phenotyping System (Sable Instruments, Inc., Las Vegas, Nev., USA).
We next tested whether the reduced brain penetrance of Compound 8/Compound 4 is associated with an attenuation of behavioral effects.

[4] = CB1R competitive binding, mouse brain membranes, [3H]CP-55,940, read-out: Ki
[5] = Mix (not separated), read-out: Ki (μM) Mix
[6] = separated isomer R, read-out: Ki (μM) R
[7] = CB1R competitive binding, values in text, read-out: CB1R Ki

SMILES: CC1=C(C(=O)Nc2ccccc2C(F)(F)F)C(c2cccc(Oc3ccccc3)c2)NC(=S)N1 (single isomer, unassigned) [Compound 2-S]
Ki (CB1R [1]; separated isomer S, read-out: Ki (μM) S): 6.33 µM

SMILES: CC1=C(C(=O)Nc2ccccc2C(F)(F)F)C(c2cccc(Oc3ccccc3)c2)NC(=S)N1 (single isomer, unassigned) [Compound 2-R]
Ki (CB1R [1]; [6]): 4 µM

SMILES: CC(C)C(NC(=O)c1ccco1)C(=O)NCC(c1ccccc1Cl)c1c[nH]c2ccccc12 (single isomer, unassigned) [Compound 4-SR]
Ki (CB1R [1]; separated isomer SR, read-out: Ki (μM) SR): 0.48 µM
brain penetrance (brain levels vs serum levels) ([2]; mice, 10, 20, 50 mg/kg ip): markedly reduced brain penetrance

SMILES: N#Cc1ccc(CC(C#N)(Cc2ccc(C#N)cc2)c2nc(-c3ccc(Cl)c(Cl)c3)cs2)cc1 [Compound 10]
Ki (CB1R [1]; [4]): 0.414 µM
Ki (CB1R [1]; [7]): ~0.4 µM
activity (agonism, antagonism, inverse agonism) properties (CB1R [3]): positive allosteric modulator (PAM)

SMILES: Cc1ccc(NC(=S)Nc2ccc(C(C)C)cc2)c(S(=O)(=O)Nc2ccc(Cl)cc2)c1 [Compound 12]
Ki (CB1R [1]; [4]): 3.4 µM
activity (agonism, antagonism, inverse agonism) properties (CB1R [3]): inverse agonists

SMILES: CC1=C(C(=O)Nc2ccccc2C(F)(F)F)C(c2cccc(Oc3ccccc3)c2)NC(=S)N1 (centres unmarked) [Compound 2]
Ki (CB1R [1]; [4]): 2.1 µM
Ki (CB1R [1]; [5]): 3.36 µM
activity (agonism, antagonism, inverse agonism) properties (CB1R [3]): inverse agonists

SMILES: CC1=C(C(=O)Nc2ccccc2C(F)(F)F)C(c2ccc(OCc3ccccc3)cc2)NC(=S)N1 (centres unmarked) [Compound 8]
Ki (CB1R [1]; [4]): 0.408 µM
Ki (CB1R [1]; [7]): ~0.4 µM
Ki (CB1R [1]; [5]): 0.346 µM
activity (agonism, antagonism, inverse agonism) properties (CB1R [3]): inverse agonists
brain penetrance (brain levels vs serum levels) ([2]; mice, 3, 10 and 30 mg/kg ip): markedly reduced brain penetrance

SMILES: Cc1ccc(C(=O)C2SC(Nc3ccc(Cl)cc3)=C(C(=O)Nc3ccc(Cl)cc3)C2=N)cc1 (centres unmarked) [Compound 11]
Ki (CB1R [1]; [4]): 1.3 µM
activity (agonism, antagonism, inverse agonism) properties (CB1R [3]): inverse agonists

SMILES: Cc1c(C(=O)NN2CCCCC2)nn(-c2ccc(Cl)cc2Cl)c1-c1ccc(Cl)cc1 [Rimonabant, reference compound]
inducing CB1R-mediated hyperactivity (activity profile) (mice): induced a marked increase in the activity profile

Second part, led by results:

Ki (CB1R [1]; [4]): 1.8 µM
Ki (CB1R [1]; [5]): 1.1 µM
SMILES: CC(=O)c1cccc(S(=O)(=O)NCCC(=O)NCC(c2ccccc2Cl)c2c[nH]c3ccccc23)c1 (centres unmarked) [Compound 3]

Ki (CB1R [1]; [6]): 1.3 µM
SMILES: CC(=O)c1cccc(S(=O)(=O)NCCC(=O)NCC(c2ccccc2Cl)c2c[nH]c3ccccc23)c1 (single isomer, unassigned) [Compound 3-R]

Ki (CB1R [1]; separated isomer RS, read-out: Ki (μM) RS): 8.46 µM
SMILES: CC(C)C(NC(=O)c1ccco1)C(=O)NCC(c1ccccc1Cl)c1c[nH]c2ccccc12 (single isomer, unassigned) [Compound 4-RS]

Ki (CB1R [1]; [4]): 1.1 µM
Ki (CB1R [1]; [5]): 1 µM
SMILES: CC(C)C(NC(=O)c1ccco1)C(=O)NCC(c1ccccc1Cl)c1c[nH]c2ccccc12 (centres unmarked) [Compound 4]
activity (agonism, antagonism, inverse agonism) properties (CB1R [3]): neutral antagonism; also recorded: antagonist

Ki (CB1R [1]; [4]): 6.5 µM
SMILES: CC(=O)Nc1ccc(C)c(S(=O)(=O)NCC(c2ccccc2Cl)c2c[nH]c3ccccc23)c1 (centres unmarked) [Compound 13]

Ki (CB1R [1]; separated isomer RR, read-out: Ki (μM) RR): 0.54 µM
brain penetrance (brain levels vs serum levels) ([2]; mice, 10, 20, 50 mg/kg ip): markedly reduced brain penetrance
SMILES: CC(C)C(NC(=O)c1ccco1)C(=O)NCC(c1ccccc1Cl)c1c[nH]c2ccccc12 (single isomer, unassigned) [Compound 4-RR]

Ki (CB1R [1]; [4]): 3.9 µM
SMILES: CC(NC(=O)Nc1ccccc1)C(=O)NCC(c1ccccc1Cl)c1c[nH]c2ccccc12 (centres unmarked) [Compound 7]

Ki (CB1R [1]; separated isomer SS, read-out: Ki (μM) SS): 1.66 µM
SMILES: CC(C)C(NC(=O)c1ccco1)C(=O)NCC(c1ccccc1Cl)c1c[nH]c2ccccc12 (single isomer, unassigned) [Compound 4-SS]

Ki (CB1R [1]; [4]): 0.938 µM
Ki (CB1R [1]; [5]): 1.2 µM
activity (agonism, antagonism, inverse agonism) properties (CB1R [3]): inverse agonists
SMILES: CC(=O)NC(CC(=O)NCC(c1ccccc1Cl)c1c[nH]c2ccccc12)c1ccc(C)cc1 (centres unmarked) [Compound 14]
